Assays:
[1] = test system: HCT-116 colorectal carcinoma cells; experiment: In vitro antiproliferative activity, MTS proliferation assay; type: cell-based; conditions: Homo sapiens, 72 h
Text: (§1) Human cancer cell lines used in this manuscript, namely Capan-1, HCT-116, NCI-H460, LN-229, HL-60, K-562, Z-138, SW620, PC3 and HeLa, were acquired from the American Type Culture Collection (ATCC, Manassas, VA, USA), while the DND-41 cell line was purchased from the Deutsche Sammlung von Mikroorganismen und Zellkulturen (DSMZ Leibniz-Institut, Germany). Culture media were purchased from Gibco Life Technologies, USA, and supplemented with 10% fetal bovine serum (HyClone, GE Healthcare Life Sciences, Chicago, IL, USA), except for the media for SW620, PC3 and HeLa cells, which were purchased from Sigma.
(§2) Adherent cell lines LN-229, HCT-116, NCI-H460 and Capan-1 cells were seeded at a density between 500 and 1500 cells per well in 384-well tissue culture plates (Greiner). […]. Cells were incubated for 72 h with compounds and were then analyzed using the CellTiter 96® AQueous One Solution Cell Proliferation Assay (MTS) reagent (Promega) according to the manufacturer’s instructions. Absorbance of the samples was measured at 490 nm using a SpectraMax Plus 384 (Molecular Devices), and OD values were used to calculate the 50% inhibitory concentration (IC50). Compounds were tested in two independent experiments. SW620, PC3 and HeLa cells were seeded in 96-well microtiter plates at 1 × 10^4 to 3 × 10^4 cells/mL, depending on the doubling times of the specific cell line. Test agents were then added in five 10-fold dilutions (10^−8 to 10^−4 M). Working dilutions were freshly prepared on the day of testing. After 72 h of incubation, the cell growth rate was evaluated using the MTT assay as described previously. Absorbance of the samples was measured at 570 nm, and OD values were used to calculate the 50% inhibitory concentration (IC50). Each test was performed in quadruplicate in at least two individual experiments.

[2] = test system: K-562 chronic myeloid leukemia cells; experiment: as above; type: cell-based; conditions: Homo sapiens, K562, 72 h
Text: as §1, §2

[3] = test system: LN-229 glioblastoma cells; experiment: as above; type: cell-based; conditions: Homo sapiens, 72 h
Text: as §1, §2

[4] = test system: NCI-H460 lung carcinoma cells; experiment: as above; type: cell-based; conditions: Homo sapiens, 72 h
Text: as §1, §2

[5] = test system: Capan-1 pancreatic adenocarcinoma cells; experiment: as above; type: cell-based; conditions: Homo sapiens, 72 h
Description: (§3) Culture media were purchased from Gibco Life Technologies, USA, and supplemented with 10% fetal bovine serum (HyClone, GE Healthcare Life Sciences, Chicago, IL, USA), except for the media for SW620, PC3 and HeLa cells, which were purchased from Sigma.
(§4) Cells were incubated for 72 h with compounds and were then analyzed using the CellTiter 96® AQueous One Solution Cell Proliferation Assay (MTS) reagent (Promega) according to the manufacturer’s instructions. […] Compounds were tested in two independent experiments. SW620, PC3 and HeLa cells were seeded in 96-well microtiter plates at 1 × 10^4 to 3 × 10^4 cells/mL, depending on the doubling times of the specific cell line. Test agents were then added in five 10-fold dilutions (10^−8 to 10^−4 M). Working dilutions were freshly prepared on the day of testing. After 72 h of incubation, the cell growth rate was evaluated using the MTT assay as described previously. […] Each test was performed in quadruplicate in at least two individual experiments.

[6] = test system: DND-41 acute lymphoblastic leukemia cells; experiment: as above; type: cell-based; conditions: Homo sapiens, DND41, 72 h
Description: as §3, §4

[7] = test system: HL-60 acute myeloid leukemia cells; experiment: as above; type: cell-based; conditions: Homo sapiens, 72 h
Description: as §3, §4

[8] = test system: Z-138 non-Hodgkin lymphoma cells; experiment: as above; type: cell-based, human
Text: as §1, §2

[9] = test system: HeLa cervical carcinoma cells; experiment: In vitro antiproliferative activity, MTT assay; type: cell-based; conditions: Homo sapiens, 72 h
Text: as §1, §2

[10] = test system: PC3 prostate carcinoma cells; experiment: In vitro antiproliferative activity, MTT assay; type: cell-based; conditions: Homo sapiens, 72 h
Text: as §1, §2

[11] = test system: SW620 colon carcinoma cells; experiment: In vitro antiproliferative activity, MTT assay; type: cell-based; conditions: Homo sapiens, SW-620, 72 h
Text: as §1, §2

E. coli ATCC 25922 = experiment: Antibacterial activity in vitro, broth microdilution; type: cell-based; conditions: Escherichia coli, ATCC25922; broth microdilution (CLSI), 16–24 h at 37 °C
Description: (§5) Synthesized compounds were prepared as 10 mM DMSO solutions and tested in a final concentration range of 100–0.2 µM [34].
(§6) Broth microdilution testing was performed according to CLSI (Clinical Laboratory Standards Institute) guidelines. MIC (minimal inhibitory concentration) values were defined as the last tested concentration of the compound at which there was no visible growth of bacteria. Inoculums for each microorganism were prepared using the direct colony suspension method, where broth solutions that achieved turbidity equivalent to 0.5 McFarland standard were additionally diluted 100× with Ca-adjusted MH media (Becton Dickinson).

S. Pneumoniae ATCC 49619 = experiment: as above; type: cell-based; conditions: Streptococcus pneumoniae, ATCC49619; broth microdilution (CLSI), 16–24 h at 37 °C
Description: as §5, §6

S. aureus ATCC 29213 = experiment: as above; type: cell-based; conditions: Staphylococcus aureus, ATCC29213; broth microdilution (CLSI), 16–24 h at 37 °C
Description: as §5, §6

E. coli Efflux Del = experiment: microbe, parasite or virus in culture; type: cell-based; conditions: Escherichia coli, read-out: MIC E. coli Efflux Del
Description: as §5, §6

HCoV 229E = experiment: Antiviral CPE reduction assay; type: cell-based; conditions: Human coronavirus 229E, HEL 299 cells
HCoV OC43 = experiment: Antiviral CPE reduction assay; type: cell-based, human coronavirus OC43; conditions: Betacoronavirus 1, OC43, HEL 299 cells
HCoV NL63 = experiment: Antiviral CPE reduction assay; type: cell-based; conditions: Human coronavirus NL63, Huh-7, Huh7 cells
[12] = test system: Influenza H1N1 (A/Ned/378/05); experiment: Antiviral CPE reduction assay; type: cell-based; conditions: Influenza A virus, MDCK cells
[13] = test system: Influenza H3N2 (A/HK/7/87); experiment: Antiviral CPE reduction assay; type: cell-based; conditions: Influenza A virus, MDCK cells
[14] = test system: Influenza B (B/Ned/537/05); experiment: Antiviral CPE reduction assay; type: cell-based; conditions: Influenza B virus, MDCK cells
RSV A Long = experiment: Antiviral CPE reduction assay; type: cell-based, respiratory syncytial virus A; conditions: human respiratory syncytial virus; CPE reduction, HEL 299 cells
HSV-1 KOS = experiment: Antiviral CPE reduction assay; type: cell-based, herpes simplex virus-1; conditions: Human alphaherpesvirus 1
YFV 17D = experiment: microbe, parasite or virus in culture; type: cell-based; conditions: Yellow fever virus, Huh-7, read-out: EC50 YFV 17D Huh7
Zika mr766 = experiment: Antiviral CPE reduction assay; type: cell-based; conditions: Zika virus, Huh-7, Huh7 cells
Sindbis = experiment: Antiviral CPE reduction assay; type: cell-based; conditions: Sindbis virus, Huh-7, Huh7 cells
[15] = test system: SW620, HeLa and PC3 cancer cell lines; experiment: In vitro antiproliferative activity, all three selected cell lines (MTT); type: cell-based; conditions: Homo sapiens, range over three cell lines, 72 h
Text: as §1
(§7) Adherent cell lines LN-229, HCT-116, NCI-H460 and Capan-1 cells were seeded at a density between 500 and 1500 cells per well in 384-well tissue culture plates (Greiner). […]. Cells were incubated for 72 h with compounds and were then analyzed using the CellTiter 96® AQueous One Solution Cell Proliferation Assay (MTS) reagent (Promega) according to the manufacturer’s instructions. Absorbance of the samples was measured at 490 nm using a SpectraMax Plus 384 (Molecular Devices), and OD values were used to calculate the 50% inhibitory concentration (IC50). Compounds were tested in two independent experiments. […] After 72 h of incubation, the cell growth rate was evaluated using the MTT assay as described previously. […]

in vitro [16] = conditions: human
in vitro [17] = conditions: human; remark: listed apart in the source
in vitro [18] = conditions: dog
in vitro [19] = experiment: in vitro
[20] = test system: panel of cancer cell lines (LN-229, Capan-1, HCT-116, NCI-H460, DND-41, HL-60, K-562, Z-138); experiment: In vitro antiproliferative activity, whole panel of Table 1 (MTS); type: cell-based; conditions: Homo sapiens, range over eight cell lines, 72 h, read-out: IC50 values ranging over the panel of cancer cell lines of Table 1
Text: as §1, §7

[21] = Cytotoxicity in virus host cell line, MTS assay; conditions: dog

For `N#Cc1ccc(-c2nc3ncc(Br)cc3[nH]2)cc1` [Compound 8, 4-(6-Bromo-1H-imidazo[4,5-b]pyridin-2-yl)benzonitrile], the IC50 [1] was > 100 µM, the IC50 [2] was > 100 µM and the IC50 [3] was > 100 µM. The IC50 [4] was > 100 µM, the IC50 [5] was > 100 µM and the IC50 [6] was > 100 µM. For the same compound, the IC50 [7] was > 100 µM, the IC50 ([8]; Homo sapiens, Z-138, 72 h) was > 100 µM and the IC50 [9] was 1.8 ± 0.02 µM. The IC50 [10] was 3.2 ± 0.7 µM, the IC50 [11] was 2 ± 0.2 µM and the MIC (E. coli ATCC 25922) was > 64 µM. The MIC (S. Pneumoniae ATCC 49619) was > 64 µM, the MIC (S. aureus ATCC 29213) was > 64 µM and the MIC (E. coli Efflux Del) was > 64 µM. For the same compound, the EC50 (HCoV 229E) was > 100 µM, the EC50 (HCoV OC43) was > 100 µM and the EC50 (HCoV NL63) was > 100 µM. It also gave an EC50 [12] of 72.4 ± 8 µM, an EC50 [13] of 35.9 ± 12.4 µM and an EC50 [14] of 56.7 ± 10.2 µM. For the same compound, the EC50 (RSV A Long) was > 100 µM, the EC50 (HSV-1 KOS) was > 100 µM and the EC50 (YFV 17D) was > 100 µM. For the same compound, the EC50 (Zika mr766) was > 100 µM, the EC50 (Sindbis) was > 100 µM and the IC50 [15] was 1.8 to 3.2 µM. For the same compound, the melting point was > 300 °C, the CC50 (in vitro [16]) was > 100 µM and the CC50 (in vitro [17]) was > 100 µM. The CC50 (in vitro [18]) was > 100 µM.

In the case of `CC(C)NC(=N)c1ccc(-c2nc3ncccc3[nH]2)cc1.Cl` [Compound 13, 4-(1H-Imidazo[4,5-b]pyridin-2-yl)-N-isopropylbenzimidamide Hydrochloride], the IC50 [1] is reported as > 100 µM, the IC50 [2] is reported as > 100 µM and the IC50 [3] is reported as > 100 µM. For the same compound, the IC50 [4] was > 100 µM, the IC50 [5] was > 100 µM and the IC50 [6] was > 100 µM. For the same compound, the IC50 [7] was > 100 µM, the IC50 ([8]; Homo sapiens, Z-138, 72 h) was > 100 µM and the IC50 [9] was > 100 µM. The IC50 [10] was > 100 µM, the IC50 [11] was > 100 µM and the MIC (E. coli ATCC 25922) was > 64 µM. The MIC (S. Pneumoniae ATCC 49619) was > 64 µM, the MIC (S. aureus ATCC 29213) was > 64 µM and the MIC (E. coli Efflux Del) was > 64 µM. The melting point was 293 to 295 °C, the CC50 (in vitro [16]) was 81.1 ± 26.8 µM and the CC50 (in vitro [17]) was > 100 µM. For the same compound, the CC50 (in vitro [18]) was > 100 µM and the CC50 (in vitro [19]) was > 30 µM.

For `Brc1cnc2nc(-c3ccc(C4=NCCN4)cc3)[nH]c2c1.Cl` [Compound 14, 6-Bromo-2-(4-(4,5-dihydro-1H-imidazol-2-yl)phenyl)-1H-imidazo[4,5-b]pyridine Hydrochloride], the IC50 [1] was 13.6 ± 2.8 µM, the IC50 [2] was 49.7 ± 3.1 µM and the IC50 [3] was 8 ± 1.8 µM. The IC50 [4] was 13 ± 7.6 µM, the IC50 [5] was 9.4 ± 0.4 µM and the IC50 [6] was 10.8 ± 0.4 µM. For the same compound, the IC50 [7] was 9.5 ± 1.3 µM, the IC50 ([8]; 72 h) was 8.5 ± 2 µM and the IC50 ([8]; Homo sapiens, Z-138, 72 h) was 8.4 µM. For the same compound, the IC50 [9] was 4.3 ± 2.6 µM, the IC50 [10] was 1.5 ± 0.5 µM and the IC50 [11] was 0.7 ± 0.3 µM. The MIC (E. coli ATCC 25922) was > 64 µM, the MIC (S. Pneumoniae ATCC 49619) was > 64 µM and the MIC (S. aureus ATCC 29213) was > 64 µM. For the same compound, the MIC (E. coli Efflux Del) was 32 µM, the IC50 [20] was 8 to 49.7 µM and the melting point was > 300 °C. The CC50 (in vitro [18]) was 33.9 ± 0.1 µM.

For `CC(N)C12CC3CC(CC(C3)C1)C2` (centres unmarked) [Rimantadine, rimantadine, reference compound], the EC50 [12] was 4.4 ± 4.2 µM, the EC50 [13] was 0.05 ± 0.05 µM and the EC50 [14] was > 100 µM. The CC50 [21] was > 100 µM.

Source: article PMC9822021, “Biological Activity of Amidino-Substituted Imidazo [4,5-b]pyridines” (Molecules, 2022)
